Test results as given in PubChem BioAssay (NCI).
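Each compound was tested at five concentrations against cells in 96-well plates for 48 hours. TGI denotes the concentration required for complete inhibition of growth.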

Assays:
Assay in all cases: growth of human tumour cells (NCI), 48 h
786-0 renal = system: 786-0 renal
A498 renal = system: A498 renal
A549 NSCLC = system: A549 NSCLC
ACHN renal = system: ACHN renal
BT-549 breast = system: BT-549 breast
CAKI-1 renal = system: CAKI-1 renal
CCRF-CEM leukemia = system: CCRF-CEM leukemia
COLO 205 colon = system: COLO 205 colon
DU-145 prostate = system: DU-145 prostate
EKVX NSCLC = system: EKVX NSCLC
HCC-2998 colon = system: HCC-2998 colon
HCT-116 colon = system: HCT-116 colon
HCT-15 colon = system: HCT-15 colon
HL-60(TB) leukemia = system: HL-60(TB) leukemia
HOP-62 NSCLC = system: HOP-62 NSCLC
HOP-92 NSCLC = system: HOP-92 NSCLC
HS 578T breast = system: HS 578T breast
HT29 colon = system: HT29 colon
IGROV1 ovarian = system: IGROV1 ovarian
K-562 leukemia = system: K-562 leukemia
KM12 colon = system: KM12 colon
LOX IMVI melanoma = system: LOX IMVI melanoma
M14 melanoma = system: M14 melanoma
MALME-3M melanoma = system: MALME-3M melanoma
MCF7 breast = system: MCF7 breast
MDA-MB-435 = system: MDA-MB-435
MDA-N = system: MDA-N
MOLT-4 leukemia = system: MOLT-4 leukemia
NCI-H226 lung = system: NCI-H226 lung
NCI-H23 lung = system: NCI-H23 lung
NCI-H460 lung = system: NCI-H460 lung
NCI-H522 lung = system: NCI-H522 lung
NCI/ADR-RES ovarian = system: NCI/ADR-RES ovarian
OVCAR-3 ovarian = system: OVCAR-3 ovarian
OVCAR-4 ovarian = system: OVCAR-4 ovarian
OVCAR-5 ovarian = system: OVCAR-5 ovarian
OVCAR-8 ovarian = system: OVCAR-8 ovarian
PC-3 prostate = system: PC-3 prostate
RPMI-8226 leukemia = system: RPMI-8226 leukemia
RXF 393 renal = system: RXF 393 renal
SF-268 CNS = system: SF-268 CNS
SF-295 CNS = system: SF-295 CNS
SF-539 CNS = system: SF-539 CNS
SK-MEL-28 melanoma = system: SK-MEL-28 melanoma
SK-MEL-5 melanoma = system: SK-MEL-5 melanoma
SN12C renal = system: SN12C renal
SNB-19 CNS = system: SNB-19 CNS
SNB-75 CNS = system: SNB-75 CNS
SR leukemia = system: SR leukemia
SW-620 colon = system: SW-620 colon
T-47D breast = system: T-47D breast
TK-10 renal = system: TK-10 renal
U251 CNS = system: U251 CNS
UACC-257 melanoma = system: UACC-257 melanoma
UACC-62 melanoma = system: UACC-62 melanoma
UO-31 renal = system: UO-31 renal
SK-MEL-2 melanoma = system: SK-MEL-2 melanoma
SK-OV-3 ovarian = system: SK-OV-3 ovarian
MDA-MB-231 breast = system: MDA-MB-231 breast

For Cc1ccc(C)c2c1C/C(=C\c1ccccc1C(=O)O)C2=O, the TGI (786-0 renal) was over 100 µM, the TGI (A498 renal) was over 100 µM and the TGI (A549 NSCLC) was over 100 µM. For the same compound, the TGI (ACHN renal) was over 100 µM, the TGI (BT-549 breast) was over 100 µM and the TGI (CAKI-1 renal) was over 100 µM. It also gave a TGI (CCRF-CEM leukemia) of over 100 µM, a TGI (COLO 205 colon) of over 100 µM and a TGI (DU-145 prostate) of over 100 µM. For the same compound, the TGI (EKVX NSCLC) was over 100 µM, the TGI (HCC-2998 colon) was over 100 µM and the TGI (HCT-116 colon) was over 100 µM. For the same compound, the TGI (HCT-15 colon) was over 100 µM, the TGI (HL-60(TB) leukemia) was over 100 µM and the TGI (HOP-62 NSCLC) was over 100 µM. The TGI (HOP-92 NSCLC) was over 100 µM, the TGI (HS 578T breast) was over 100 µM and the TGI (HT29 colon) was over 100 µM. The TGI (IGROV1 ovarian) was over 100 µM, the TGI (K-562 leukemia) was over 100 µM and the TGI (KM12 colon) was over 100 µM. The TGI (LOX IMVI melanoma) was over 100 µM, the TGI (M14 melanoma) was over 100 µM and the TGI (MALME-3M melanoma) was over 100 µM. The TGI (MCF7 breast) was over 100 µM, the TGI (MDA-MB-435) was over 100 µM and the TGI (MDA-N) was over 100 µM. For the same compound, the TGI (MOLT-4 leukemia) was over 100 µM, the TGI (NCI-H226 lung) was 80.5 µM and the TGI (NCI-H23 lung) was over 100 µM. The TGI (NCI-H460 lung) was over 100 µM, the TGI (NCI-H522 lung) was over 100 µM and the TGI (NCI/ADR-RES ovarian) was over 100 µM. The TGI (OVCAR-3 ovarian) was over 100 µM, the TGI (OVCAR-4 ovarian) was over 100 µM and the TGI (OVCAR-5 ovarian) was over 100 µM. The TGI (OVCAR-8 ovarian) was over 100 µM, the TGI (PC-3 prostate) was over 100 µM and the TGI (RPMI-8226 leukemia) was over 100 µM. The TGI (RXF 393 renal) was over 100 µM, the TGI (SF-268 CNS) was over 100 µM and the TGI (SF-295 CNS) was over 100 µM. For the same compound, the TGI (SF-539 CNS) was 97.7 µM, the TGI (SK-MEL-28 melanoma) was over 100 µM and the TGI (SK-MEL-5 melanoma) was over 100 µM. The TGI (SN12C renal) was over 100 µM, the TGI (SNB-19 CNS) was over 100 µM and the TGI (SNB-75 CNS) was over 100 µM. The TGI (SR leukemia) was over 100 µM, the TGI (SW-620 colon) was over 100 µM and the TGI (T-47D breast) was over 100 µM. For the same compound, the TGI (TK-10 renal) was over 100 µM, the TGI (U251 CNS) was over 100 µM and the TGI (UACC-257 melanoma) was over 100 µM. The TGI (UACC-62 melanoma) was over 100 µM and the TGI (UO-31 renal) was over 100 µM.

Compound O=C(Nc1c(Cl)cccc1Cl)c1c(Cl)c(Cl)c(Cl)c(Cl)c1-c1nc2ccccc2[nH]1 has a TGI (786-0 renal) of over 100 µM, a TGI (A498 renal) of 54.6 µM and a TGI (A549 NSCLC) of over 100 µM. The TGI (ACHN renal) was over 100 µM, the TGI (BT-549 breast) was over 100 µM and the TGI (CAKI-1 renal) was over 100 µM. The TGI (CCRF-CEM leukemia) was over 100 µM, the TGI (COLO 205 colon) was over 100 µM and the TGI (DU-145 prostate) was over 100 µM. For the same compound, the TGI (EKVX NSCLC) was over 100 µM, the TGI (HCC-2998 colon) was over 100 µM and the TGI (HCT-116 colon) was over 100 µM. It also gave a TGI (HCT-15 colon) of over 100 µM, a TGI (HL-60(TB) leukemia) of over 100 µM and a TGI (HOP-62 NSCLC) of over 100 µM. The TGI (HOP-92 NSCLC) was over 100 µM, the TGI (HS 578T breast) was over 100 µM and the TGI (HT29 colon) was over 100 µM. For the same compound, the TGI (IGROV1 ovarian) was over 100 µM, the TGI (K-562 leukemia) was over 100 µM and the TGI (KM12 colon) was over 100 µM. The TGI (LOX IMVI melanoma) was over 100 µM, the TGI (M14 melanoma) was over 100 µM and the TGI (MALME-3M melanoma) was over 100 µM. It also gave a TGI (MCF7 breast) of over 100 µM, a TGI (MDA-MB-435) of over 100 µM and a TGI (MDA-N) of over 100 µM. For the same compound, the TGI (MOLT-4 leukemia) was over 100 µM, the TGI (NCI-H226 lung) was over 100 µM and the TGI (NCI-H23 lung) was over 100 µM. The TGI (NCI-H460 lung) was over 100 µM, the TGI (NCI-H522 lung) was over 100 µM and the TGI (NCI/ADR-RES ovarian) was over 100 µM. It also gave a TGI (OVCAR-3 ovarian) of over 100 µM, a TGI (OVCAR-4 ovarian) of over 100 µM and a TGI (OVCAR-5 ovarian) of over 100 µM. For the same compound, the TGI (OVCAR-8 ovarian) was over 100 µM, the TGI (PC-3 prostate) was over 100 µM and the TGI (RPMI-8226 leukemia) was over 100 µM. For the same compound, the TGI (RXF 393 renal) was 45.2 µM, the TGI (SF-268 CNS) was over 100 µM and the TGI (SF-295 CNS) was over 100 µM. It also gave a TGI (SF-539 CNS) of over 100 µM, a TGI (SK-MEL-2 melanoma) of over 100 µM and a TGI (SK-MEL-28 melanoma) of over 100 µM. It also gave a TGI (SK-MEL-5 melanoma) of over 100 µM, a TGI (SK-OV-3 ovarian) of over 100 µM and a TGI (SN12C renal) of over 100 µM. For the same compound, the TGI (SNB-75 CNS) was 84.9 µM, the TGI (SR leukemia) was over 100 µM and the TGI (SW-620 colon) was over 100 µM. It also gave a TGI (T-47D breast) of over 100 µM, a TGI (UACC-257 melanoma) of over 100 µM and a TGI (UACC-62 melanoma) of over 100 µM. The TGI (UO-31 renal) was over 100 µM.

In the case of CCC1=C(C)C(=O)N/C1=C\c1[nH]c(C)c([C@H](C)CCN)c1C, the TGI (786-0 renal) is reported as 28.9 µM, the TGI (A498 renal) is reported as 33.4 µM and the TGI (A549 NSCLC) is reported as 34.3 µM. The TGI (ACHN renal) was 32.9 µM, the TGI (BT-549 breast) was 29.9 µM and the TGI (CAKI-1 renal) was 32.3 µM. For the same compound, the TGI (CCRF-CEM leukemia) was over 100 µM, the TGI (COLO 205 colon) was 31.1 µM and the TGI (DU-145 prostate) was 32.5 µM. For the same compound, the TGI (EKVX NSCLC) was 28.1 µM, the TGI (HCT-116 colon) was 27.6 µM and the TGI (HCT-15 colon) was 28.6 µM. The TGI (HL-60(TB) leukemia) was 42.4 µM, the TGI (HOP-62 NSCLC) was 32.7 µM and the TGI (HOP-92 NSCLC) was 28.6 µM. The TGI (HS 578T breast) was 28.6 µM, the TGI (HT29 colon) was 29.6 µM and the TGI (IGROV1 ovarian) was 32 µM. For the same compound, the TGI (K-562 leukemia) was over 100 µM, the TGI (KM12 colon) was 30.7 µM and the TGI (LOX IMVI melanoma) was 28.7 µM. It also gave a TGI (M14 melanoma) of 30.4 µM, a TGI (MALME-3M melanoma) of 32.8 µM and a TGI (MCF7 breast) of 32.9 µM. The TGI (MDA-MB-231 breast) was 32.7 µM, the TGI (MDA-MB-435) was 29.6 µM and the TGI (MDA-N) was 29.1 µM. It also gave a TGI (MOLT-4 leukemia) of over 100 µM, a TGI (NCI-H226 lung) of 31.8 µM and a TGI (NCI-H23 lung) of 26.8 µM. It also gave a TGI (NCI-H460 lung) of 35.5 µM, a TGI (NCI-H522 lung) of 24.4 µM and a TGI (NCI/ADR-RES ovarian) of 49 µM. For the same compound, the TGI (OVCAR-3 ovarian) was 30.1 µM, the TGI (OVCAR-4 ovarian) was 26.7 µM and the TGI (OVCAR-5 ovarian) was 31.7 µM. It also gave a TGI (OVCAR-8 ovarian) of 28.8 µM, a TGI (RPMI-8226 leukemia) of over 100 µM and a TGI (SF-268 CNS) of 30.4 µM. For the same compound, the TGI (SF-295 CNS) was 31.5 µM, the TGI (SF-539 CNS) was 15.5 µM and the TGI (SK-MEL-2 melanoma) was 35.1 µM. The TGI (SK-MEL-28 melanoma) was 32.5 µM, the TGI (SK-MEL-5 melanoma) was 31.4 µM and the TGI (SK-OV-3 ovarian) was 31.5 µM. The TGI (SN12C renal) was 29.8 µM, the TGI (SNB-75 CNS) was 22.6 µM and the TGI (SR leukemia) was over 100 µM. It also gave a TGI (SW-620 colon) of 35.1 µM, a TGI (T-47D breast) of 26.2 µM and a TGI (U251 CNS) of 28.9 µM. The TGI (UACC-62 melanoma) was 31.5 µM and the TGI (UO-31 renal) was 29.2 µM.
